Reference: the supplement of paper PMC10307832

Key:
Assay in all cases: relative viability (nuclei count vs DMSO), 5 days (fraction); higher = more cells survive
NCI-H647 = test system: NCI-H647
Procedure, shortened: (§1)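 For relative viability, nuclei counts in treated wells were divided by those in vehicle wells. Lung cancer cell lines had been pin-tool dosed in 1536-well plates the day after seeding and cultured for 5 days, then fixed and stained in one step (final 0.05% Triton X-100, 1% formaldehyde, 1 ug/ml Hoechst) and imaged at 4×. Doses were one drug alone or a fixed anchor-drug dose plus five library-drug doses (not always all listed) in √10 steps, and values are duplicate-plate medians.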

HOP-62 = test system: HOP-62
Procedure, shortened: as §1

NCI-H1915 = test system: NCI-H1915
Procedure, shortened: as §1

LCLC-97TM1 = test system: LCLC-97TM1
Procedure, shortened: as §1

NCI-H2023 = test system: NCI-H2023
Procedure, shortened: as §1

SW 1573 = test system: SW 1573
Procedure, shortened: as §1

NCI-H1993 = test system: NCI-H1993
Procedure, shortened: as §1

NCI-H2347 = test system: NCI-H2347
Procedure, shortened: as §1

NCI-H2126 = test system: NCI-H2126
Procedure, shortened: as §1

SK-LU-1 = test system: SK-LU-1
Procedure, shortened: as §1

NCI-H727 = test system: NCI-H727
Procedure, shortened: as §1

LXF-289 = test system: LXF-289
Procedure, shortened: as §1

NCI-H322M = test system: NCI-H322M
Procedure, shortened: as §1

NCI-H1650 = test system: NCI-H1650
Procedure, shortened: as §1

PC-14 = test system: PC-14
Procedure, shortened: as §1

NCI-H2342 = test system: NCI-H2342
Procedure, shortened: as §1

EPLC-272H = test system: EPLC-272H
Procedure, shortened: as §1

NCI-H2009 = test system: NCI-H2009
Procedure, shortened: as §1

EMC-BAC-2 = test system: EMC-BAC-2
Procedure, shortened: as §1

H3255 = test system: H3255
Procedure, shortened: as §1

NCI-H661 = test system: NCI-H661
Procedure, shortened: as §1

NCI-H2085 = test system: NCI-H2085
Procedure, shortened: as §1

## NC(=O)Nc1cc(-c2cccc(F)c2)sc1C(=O)N[C@H]1CCCNC1 [AZD7762] + Nc1ncn([C@H]2C[C@H](O)[C@@H](CO)O2)c(=O)n1 [Decitabine] (partner 2 µM)
NCI-H647; first compound 0.01 µM
  relative viability: 0.475
NCI-H647; first compound 0.03162 µM
  relative viability: 0.501
NCI-H647; first compound 0.1 µM
  relative viability: 0.441
NCI-H647; first compound 0.3162 µM
  relative viability: 0.356
NCI-H647; first compound 1 µM
  relative viability: 0.156
HOP-62; first compound 0.01 µM
  relative viability: 0.216
HOP-62; first compound 0.03162 µM
  relative viability: 0.23
HOP-62; first compound 0.1 µM
  relative viability: 0.248
HOP-62; first compound 0.3162 µM
  relative viability: 0.284
HOP-62; first compound 1 µM
  relative viability: 0.299
NCI-H1915; first compound 0.01 µM
  relative viability: 0.276
NCI-H1915; first compound 0.03162 µM
  relative viability: 0.297
NCI-H1915; first compound 0.1 µM
  relative viability: 0.294
NCI-H1915; first compound 0.3162 µM
  relative viability: 0.337
NCI-H1915; first compound 1 µM
  relative viability: 0.326
LCLC-97TM1; first compound 0.01 µM
  relative viability: 0.259
LCLC-97TM1; first compound 0.03162 µM
  relative viability: 0.265
LCLC-97TM1; first compound 0.1 µM
  relative viability: 0.273
LCLC-97TM1; first compound 0.3162 µM
  relative viability: 0.303
LCLC-97TM1; first compound 1 µM
  relative viability: 0.346
NCI-H2023; first compound 0.01 µM
  relative viability: 0.249
NCI-H2023; first compound 0.03162 µM
  relative viability: 0.25
NCI-H2023; first compound 0.1 µM
  relative viability: 0.179
NCI-H2023; first compound 0.3162 µM
  relative viability: 0.121
NCI-H2023; first compound 1 µM
  relative viability: 0.0986
SW 1573; first compound 0.01 µM
  relative viability: 0.565
SW 1573; first compound 0.03162 µM
  relative viability: 0.523
SW 1573; first compound 0.1 µM
  relative viability: 0.482
SW 1573; first compound 0.3162 µM
  relative viability: 0.324
SW 1573; first compound 1 µM
  relative viability: 0.172
NCI-H1993; first compound 0.01 µM
  relative viability: 0.626
NCI-H1993; first compound 0.03162 µM
  relative viability: 0.606
NCI-H1993; first compound 0.1 µM
  relative viability: 0.657
NCI-H1993; first compound 0.3162 µM
  relative viability: 0.597
NCI-H1993; first compound 1 µM
  relative viability: 0.638
NCI-H2347; first compound 0.01 µM
  relative viability: 0.558
NCI-H2347; first compound 0.03162 µM
  relative viability: 0.656
NCI-H2347; first compound 0.1 µM
  relative viability: 0.725
NCI-H2347; first compound 0.3162 µM
  relative viability: 0.79
NCI-H2347; first compound 1 µM
  relative viability: 0.752
NCI-H2126; first compound 0.01 µM
  relative viability: 0.562
NCI-H2126; first compound 0.03162 µM
  relative viability: 0.628
NCI-H2126; first compound 0.1 µM
  relative viability: 0.656
NCI-H2126; first compound 0.3162 µM
  relative viability: 0.789
NCI-H2126; first compound 1 µM
  relative viability: 0.741
SK-LU-1; first compound 0.01 µM
  relative viability: 0.609
SK-LU-1; first compound 0.03162 µM
  relative viability: 0.782
SK-LU-1; first compound 0.1 µM
  relative viability: 0.49
SK-LU-1; first compound 0.3162 µM
  relative viability: 0.281
SK-LU-1; first compound 1 µM
  relative viability: 0.204
NCI-H727; first compound 0.01 µM
  relative viability: 1.01
NCI-H727; first compound 0.03162 µM
  relative viability: 1.11
NCI-H727; first compound 0.1 µM
  relative viability: 0.895
NCI-H727; first compound 0.3162 µM
  relative viability: 0.959
NCI-H727; first compound 1 µM
  relative viability: 0.536
LXF-289; first compound 0.01 µM
  relative viability: 0.322
LXF-289; first compound 0.03162 µM
  relative viability: 0.476
LXF-289; first compound 0.1 µM
  relative viability: 0.486
LXF-289; first compound 0.3162 µM
  relative viability: 0.619
LXF-289; first compound 1 µM
  relative viability: 0.55
NCI-H322M; first compound 0.01 µM
  relative viability: 0.813
NCI-H322M; first compound 0.03162 µM
  relative viability: 0.789
NCI-H322M; first compound 0.1 µM
  relative viability: 0.801
NCI-H322M; first compound 0.3162 µM
  relative viability: 0.783
NCI-H322M; first compound 1 µM
  relative viability: 0.457
NCI-H1650; first compound 0.01 µM
  relative viability: 0.606
NCI-H1650; first compound 0.03162 µM
  relative viability: 0.593
NCI-H1650; first compound 0.1 µM
  relative viability: 0.62
NCI-H1650; first compound 0.3162 µM
  relative viability: 0.477
NCI-H1650; first compound 1 µM
  relative viability: 0.284
PC-14; first compound 0.01 µM
  relative viability: 0.234
PC-14; first compound 0.03162 µM
  relative viability: 0.225
PC-14; first compound 0.1 µM
  relative viability: 0.166
PC-14; first compound 0.3162 µM
  relative viability: 0.137
PC-14; first compound 1 µM
  relative viability: 0.0898
NCI-H2342; first compound 0.01 µM
  relative viability: 0.68
NCI-H2342; first compound 0.03162 µM
  relative viability: 0.731
NCI-H2342; first compound 0.1 µM
  relative viability: 0.805
NCI-H2342; first compound 0.3162 µM
  relative viability: 0.821
NCI-H2342; first compound 1 µM
  relative viability: 0.854
EPLC-272H; first compound 0.01 µM
  relative viability: 0.352
EPLC-272H; first compound 0.03162 µM
  relative viability: 0.445
EPLC-272H; first compound 0.1 µM
  relative viability: 0.356
EPLC-272H; first compound 0.3162 µM
  relative viability: 0.421
EPLC-272H; first compound 1 µM
  relative viability: 0.239
NCI-H2009; first compound 0.01 µM
  relative viability: 0.468
NCI-H2009; first compound 0.03162 µM
  relative viability: 0.417
NCI-H2009; first compound 0.1 µM
  relative viability: 0.373
NCI-H2009; first compound 0.3162 µM
  relative viability: 0.378
NCI-H2009; first compound 1 µM
  relative viability: 0.3
EMC-BAC-2; first compound 0.01 µM
  relative viability: 1.03
EMC-BAC-2; first compound 0.03162 µM
  relative viability: 1.01
EMC-BAC-2; first compound 0.1 µM
  relative viability: 1.09
EMC-BAC-2; first compound 0.3162 µM
  relative viability: 1.13
EMC-BAC-2; first compound 1 µM
  relative viability: 0.933
H3255; first compound 0.01 µM
  relative viability: 0.528
H3255; first compound 0.03162 µM
  relative viability: 0.708
H3255; first compound 0.1 µM
  relative viability: 0.683
H3255; first compound 0.3162 µM
  relative viability: 0.599
H3255; first compound 1 µM
  relative viability: 0.625
NCI-H661; first compound 0.01 µM
  relative viability: 0.689
NCI-H661; first compound 0.03162 µM
  relative viability: 0.62
NCI-H661; first compound 0.1 µM
  relative viability: 0.642
NCI-H661; first compound 0.3162 µM
  relative viability: 0.609
NCI-H661; first compound 1 µM
  relative viability: 0.356
NCI-H2085; first compound 0.01 µM
  relative viability: 0.602
NCI-H2085; first compound 0.03162 µM
  relative viability: 0.693
NCI-H2085; first compound 0.1 µM
  relative viability: 0.672
NCI-H2085; first compound 0.3162 µM
  relative viability: 0.743
NCI-H2085; first compound 1 µM
  relative viability: 0.702
